System: zebrafish 4 days post fertilization
Test: Zebrafish colour preference (visual perception response) test in water tank with blue and yellow passage portions
Conditions: as the alcohol concentration of the medium increased (0%, 0.5%, 1%, 2%); 10 zebrafish, 30-minute intervals, FIG. 5
Source text: 5) The image stored in each of the first to fifth image files was read at 2-minute intervals to count the number of zebrafish in the first passage portion 112 fitted with the first fitting body 120 (preferred color) or the second passage portion 113 fitted with the second fitting body 130 (dislike color).

Structure (SMILES): CCO [alcohol]
- visual perception response of the zebrafish (distribution between first passage portion, preferred color, and second passage portion, dislike color): scattered in both the first passage portion 112 and the second passage portion 113

From patent US20150177228A1, “DEVICE AND METHOD FOR SCREENING FOR BIOACTIVE MATERIALS USING VISUAL RECOGNITION OF ANIMALS” (GENOMIC DESIGN BIOENGINEERING COMPANY, priority 2012, published 2015)
